Assay results published in the supplement of paper PMC10307832.

Experiments:
Assay in all cases: relative viability (nuclei count vs DMSO), 5 days (fraction); higher = more cells survive
Palbociclib + Foretinib = compound: CC(=O)c1c(C)c2cnc(Nc3ccc(N4CCNCC4)cn3)nc2n(C2CCCC2)c1=O [Palbociclib] + COc1cc2c(Oc3ccc(NC(=O)C4(C(=O)Nc5ccc(F)cc5)CC4)cc3F)ccnc2cc1OCCCN1CCOCC1 [Foretinib] (partner 0.25 µM)
How it was run: (§1)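 Lung cancer cell lines in 1536-well plates got either a single drug or a fixed anchor-drug dose together with five library-drug doses (not always all listed) in √10 steps, by pin tool, on the day after seeding. Nuclei were counted after 5 days, and relative viability is the treated-to-vehicle ratio of nuclei counts. Values are medians of duplicate plates.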

Palbociclib + Tozasertib = compound: CC(=O)c1c(C)c2cnc(Nc3ccc(N4CCNCC4)cn3)nc2n(C2CCCC2)c1=O [Palbociclib] + Cc1cc(Nc2cc(N3CCN(C)CC3)nc(Sc3ccc(NC(=O)C4CC4)cc3)n2)n[nH]1 [Tozasertib] (partner 0.1 µM)
How it was run: as §1

Palbociclib + Dasatinib = compound: CC(=O)c1c(C)c2cnc(Nc3ccc(N4CCNCC4)cn3)nc2n(C2CCCC2)c1=O [Palbociclib] + Cc1nc(Nc2ncc(C(=O)Nc3c(C)cccc3Cl)s2)cc(N2CCN(CCO)CC2)n1 [Dasatinib] (partner 0.075 µM)
How it was run: as §1

Cell Line | relative viability (Palbociclib + Foretinib; first compound 0.01 µM) | relative viability (Palbociclib + Foretinib; first compound 0.03162 µM) | relative viability (Palbociclib + Foretinib; first compound 0.1 µM) | relative viability (Palbociclib + Foretinib; first compound 0.3162 µM) | relative viability (Palbociclib + Foretinib; first compound 1 µM) | relative viability (Palbociclib + Tozasertib; first compound 0.01 µM) | relative viability (Palbociclib + Tozasertib; first compound 0.03162 µM) | relative viability (Palbociclib + Tozasertib; first compound 0.1 µM) | relative viability (Palbociclib + Tozasertib; first compound 0.3162 µM) | relative viability (Palbociclib + Tozasertib; first compound 1 µM) | relative viability (Palbociclib + Dasatinib; first compound 0.01 µM) | relative viability (Palbociclib + Dasatinib; first compound 0.03162 µM) | relative viability (Palbociclib + Dasatinib; first compound 0.1 µM) | relative viability (Palbociclib + Dasatinib; first compound 0.3162 µM) | relative viability (Palbociclib + Dasatinib; first compound 1 µM)
NCI-H2170 | 1.03 | 0.969 | 0.955 | 0.889 | 0.852 | 0.697 | 0.75 | 0.737 | 0.77 | 0.655 | 0.488 | 0.515 | 0.549 | 0.534 | 0.521
NCI-H2228 | 0.773 | 0.782 | 0.867 | 0.787 | 0.781 | 0.247 | 0.235 | 0.247 | 0.261 | 0.23 | 0.546 | 0.449 | 0.418 | 0.409 | 0.408
NCI-H2342 | 0.986 | 0.974 | 0.749 | 0.995 | 0.662 | 0.556 | 0.4 | 0.493 | 0.544 | 0.409 | 0.324 | 0.302 | 0.306 | 0.301 | 0.314
NCI-H2347 | 0.917 |  | 0.844 |  | 0.546 | 0.639 |  | 0.542 | 0.565 | 0.361 | 0.341 |  | 0.266 | 0.247 | 0.245
NCI-H2405 | 1.02 | 0.972 | 0.884 | 0.822 | 0.675 | 0.75 | 0.651 | 0.663 | 0.574 | 0.509 | 0.207 | 0.212 | 0.226 | 0.212 | 0.208
NCI-H3122 | 0.854 | 0.936 | 0.892 | 0.7 | 0.553 | 0.344 | 0.212 | 0.231 | 0.234 | 0.143 | 0.762 | 0.546 | 0.386 | 0.414 | 0.231
PC-3 [JPC-3] | 1.1 | 0.955 | 0.884 | 0.855 | 0.64 | 0.918 | 0.778 | 0.823 | 0.774 | 0.596 | 1.06 | 0.758 | 0.936 | 0.801 | 0.566
PC-14 | 0.944 | 0.865 | 0.819 | 0.868 | 0.733 | 0.589 |  | 0.523 | 0.55 | 0.4 | 0.324 | 0.223 | 0.207 | 0.164 | 0.115
RERF-LC-KJ | 0.868 | 0.761 | 0.88 | 0.861 | 0.898 | 0.467 | 0.446 | 0.392 | 0.536 | 0.534 | 0.832 | 0.802 | 0.717 | 0.852 | 0.922
SK-LU-1 | 0.825 | 0.74 | 0.571 | 0.552 | 0.361 | 0.334 | 0.33 | 0.266 | 0.251 | 0.228 | 0.183 | 0.157 | 0.147 | 0.133 | 0.161
SK-MES-1 | 1.09 | 0.834 | 0.781 | 0.687 | 0.502 | 0.858 | 0.76 | 0.595 | 0.502 | 0.29 | 0.346 | 0.358 | 0.165 | 0.129 | 0.188
SW 900 | 0.902 |  | 0.844 | 0.649 | 0.625 | 0.557 |  | 0.461 | 0.417 | 0.506 | 0.641 |  | 0.543 | 0.479 | 0.46
SW 1573 | 0.867 | 1 | 0.862 | 0.742 | 0.785 | 0.151 | 0.185 | 0.167 | 0.148 | 0.163 | 0.495 | 0.321 | 0.354 | 0.394 | 0.277
UMC-11 | 1.01 | 0.86 | 0.698 | 0.459 | 0.275 | 0.197 | 0.187 | 0.202 | 0.22 | 0.208 | 0.491 | 0.395 | 0.346 | 0.328 | 0.232
